The source of these data is patent US20260232818A1, “PHARMACEUTICAL COMPOSITIONS COMPRISING PROTEIN COMPLEXES” (Onchilles Pharma, Inc., priority 2023, published 2026).

Series [1] concerns human ovarian cancer cells. Nature of the series: Selective cancer cell-killing in ovarian cancer patient samples, cancer cells. The conditions noted are these: 24 hours; Calcein-AM; FIG. 9B. In kind it is cell-based. The text has this:
Evaluating selective cancer cell-killing in ovarian cancer patient samples. Cancer and non-cancer cells were isolated from primary tumors, intraperitoneal (IP) fluid, omental adipose tissue (common metastatic site), and blood from 6 ovarian cancer patients. The following cells were isolated and tested: cancer cells (digested tumor with depletion of fibroblasts, CD45+ cells, and […] cells), non-cancer immune cells (digested omental cells with depletion of neutrophils or CD45+ cells from tumor tissue), peripheral blood mononuclear cells (PBMCs; B cells, T cells, monocytes, and NK cells), fibroblasts (isolated from tumor samples using fibroblast isolation kit), and IP cells (composed of >90% CD45+ immune cells, including B, T, myeloid, NK cells). Isolated cells were plated and exposed to A2M:MutF, doxorubicin (standard of care chemotherapy), or oxaliplatin (standard of care chemotherapy) for 24 hours. Cell viability was assessed by Calcein-AM.

The nature of series [2]: Coagulation Assay (PT, PTT, fibrinogen in plasma after IV injection). In kind it is in vivo, Mice. The conditions noted are these: mouse plasma 5 min after IV injection of 480 ug. How it is done: Coagulation Assay. Mice were injected with 200 μL of 480 ug of MutF or purified A2M:MutF protein complexes at a 1:2 molar ratio. Blood was collected in sodium citrate tubes and centrifuged at 1500×g for 15 minutes. 300 μl of plasma were frozen and shipped to IDEXX to be analyzed for Prothrombin time, Partial Thromboplastin time, and concentration of Fibrinogen.

For series [3], the system named is Elastin-F. Description: Elastin cleavage assay. In kind it is biochemical. The conditions noted are these: overnight at 37° C.; FIG. 6C. The method, then: Elastin cleavage assay. MutF was mixed with different concentrations of A2M to reach various molar ratios, followed by a 30-minute incubation at 37° C. in PBS. Elastin-F (1:100) was incubated with pre-mixed A2M:MutF protein complexes overnight at 37° C., and the degraded fluorescent signal was measured in the supernatant.

A short description of series [4]: Plasma Protection Assay (MutF activity on AAPV-AMC in plasma). In kind it is biochemical. The conditions noted are these: mouse plasma; MutF 400 nM; A2M:MutF 1:2; FIG. 3C. How it is done:
Plasma Protection Assay. MutF (400 nM) was mixed with 200 nM A2M to reach a 1:2 molar ratio (A2M:MutF), followed by 30 minutes incubation at 37° C. in PBS. A plasma protection assay was performed in 384-black well-coated plate by adding 10 μL of sample with either 10 μL of PBS or 10 μL of mouse plasma samples in duplicates. 20 μL of the substrate AAPV-AMC at a concentration of 100 μM was added. Kinetics were measured on Varioskan LUX: 380 nm ex/460 nm (5 nm bandwidth), 37° C., top, 100 msec, 2 min for 16 reads. Vo was calculated as activity measurement.

Series [5] addresses T1, Human fibrinogen (Homo sapiens, UniProt P02671+P02675+P02679).
T1 construct: purchased Sigma
T1 sequence (P02671 20-629 limits assumed): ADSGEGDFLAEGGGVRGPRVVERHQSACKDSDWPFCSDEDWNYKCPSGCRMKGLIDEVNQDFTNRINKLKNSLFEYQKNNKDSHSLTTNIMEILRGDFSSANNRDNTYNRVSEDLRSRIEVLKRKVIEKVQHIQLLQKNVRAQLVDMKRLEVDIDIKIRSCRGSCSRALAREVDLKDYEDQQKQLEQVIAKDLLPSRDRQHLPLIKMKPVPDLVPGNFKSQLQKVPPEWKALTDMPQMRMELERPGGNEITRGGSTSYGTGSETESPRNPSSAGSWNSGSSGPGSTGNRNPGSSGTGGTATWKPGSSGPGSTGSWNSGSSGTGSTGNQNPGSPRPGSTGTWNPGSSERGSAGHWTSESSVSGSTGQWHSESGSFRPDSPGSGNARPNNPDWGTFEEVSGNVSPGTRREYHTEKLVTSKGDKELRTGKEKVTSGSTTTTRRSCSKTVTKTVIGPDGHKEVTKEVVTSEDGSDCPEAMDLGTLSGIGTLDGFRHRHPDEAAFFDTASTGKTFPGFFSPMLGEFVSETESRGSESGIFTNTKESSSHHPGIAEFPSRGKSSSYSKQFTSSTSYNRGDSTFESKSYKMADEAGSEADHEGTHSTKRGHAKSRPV
T1 sequence (P02675 31-491): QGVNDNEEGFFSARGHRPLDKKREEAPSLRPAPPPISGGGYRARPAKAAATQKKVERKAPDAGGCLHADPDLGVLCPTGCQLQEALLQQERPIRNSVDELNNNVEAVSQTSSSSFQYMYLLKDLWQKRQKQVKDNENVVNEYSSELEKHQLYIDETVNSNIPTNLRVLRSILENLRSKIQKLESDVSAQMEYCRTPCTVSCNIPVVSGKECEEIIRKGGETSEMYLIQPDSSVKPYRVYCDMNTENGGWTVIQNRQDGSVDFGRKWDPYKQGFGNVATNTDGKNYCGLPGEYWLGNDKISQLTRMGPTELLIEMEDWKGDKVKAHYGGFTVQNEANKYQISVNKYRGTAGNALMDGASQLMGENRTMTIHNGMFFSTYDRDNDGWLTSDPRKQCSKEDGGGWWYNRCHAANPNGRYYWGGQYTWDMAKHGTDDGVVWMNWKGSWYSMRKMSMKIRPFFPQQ
T1 sequence (P02679 27-453): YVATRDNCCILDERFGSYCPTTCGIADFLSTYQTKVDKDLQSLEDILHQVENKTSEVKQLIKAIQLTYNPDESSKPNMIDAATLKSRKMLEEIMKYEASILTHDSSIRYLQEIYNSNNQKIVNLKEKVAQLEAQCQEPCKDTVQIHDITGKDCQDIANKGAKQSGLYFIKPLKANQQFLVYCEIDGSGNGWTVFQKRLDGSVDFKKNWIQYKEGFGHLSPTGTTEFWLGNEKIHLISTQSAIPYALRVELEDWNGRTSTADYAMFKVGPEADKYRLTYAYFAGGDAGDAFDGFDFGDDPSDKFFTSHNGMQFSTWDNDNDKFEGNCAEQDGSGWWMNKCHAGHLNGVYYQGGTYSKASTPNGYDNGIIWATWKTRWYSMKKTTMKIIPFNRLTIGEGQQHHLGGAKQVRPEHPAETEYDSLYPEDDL
Nature of the series: Fibrinogen cleavage assay. In kind it is biochemical. The conditions noted are these: 1 hr at 37° C.; Western Blot; FIG. 6B. The method, then: Fibrinogen cleavage assay. MutF was mixed with different concentrations of A2M to reach various molar ratios, followed by a 30-minute incubation at 37° C. in PBS. Human fibrinogen (Sigma) was incubated with pre-mixed A2M:MutF protein complexes at different molar ratios for 1 hr at 37° C. Samples containing 5 ug of fibrinogen were loaded on 4-15% gel and fibrinogen was detected by Western Blot with an anti-fibrinogen (cell signaling Technology). Gels were imaged by iBright 1500.

On to `COc1cccc2c1C(=O)c1c(O)c3c(c(O)c1C2=O)C[C@@](O)(C(=O)CO)C[C@@H]3O[C@H]1C[C@H](N)[C@H](O)[C@H](C)O1` [doxorubicin, reference compound], for which the “Killing of cancer cells from chemo-naïve vs chemo-treated patients” value in series [1] was “reduced killing of cancer cells isolated from chemo-treated relative to chemo-naïve patients”.

For the compound `O=C1[O][Pt]2([NH][C@@H]3CCCC[C@H]3[NH]2)[O]C1=O` [oxaliplatin, reference compound], the “Killing of cancer cells from chemo-naïve vs chemo-treated patients” value in series [1] is “reduced killing of cancer cells isolated from chemo-treated relative to chemo-naïve patients”.

As to “MutF: porcine pancreatic elastase (PPE) protein 'Mutant F', Q211F, SEQ ID NO: 5”, in series [2] (FIG. 7A), the Prothrombin time result was “increases PT and PTT times”. The “Partial Thromboplastin time” value in series [2] (FIG. 7B) was “increases PT and PTT times”. In addition, in series [2] (FIG. 7C), the “Concentration of fibrinogen in plasma” value is “causes reductions in fibrinogen levels”. In series [3], the “Elastin cleavage (fluorescent signal)” value is “does cleave elastin”. For the same compound, the “MutF activity in plasma” value in series [4] was “plasma inhibits MutF activity”. In addition, in series [5], the Fibrinogen cleavage entry is recorded as “does cleave fibrinogen”.
